How the values were obtained:
[1] = Plasma HSP90i concentration in mice by LC/MS; assay type: in vivo, C57Bl/6 and NOD-SCID mice; conditions: 0.5 mg/kg/day in drinking water, both strains (C57Bl/6 and NOD-SCID)
Protocol: For oral dosing with HSP90i, the average water consumption of the mice was calculated by measuring water bottle weight before and after 72 hours of housing to determine the average consumption per mouse, per day. Across all experiments, C57Cl/6 mice consumed approximately 4 mL every day. Using these water consumption values, and mouse weight, a 4 mg/mL stock solution of NVP-HSP990 (in 100% PEG400) was diluted directly into the drinking water to achieve a target dose of 0.5 mg/kg/day. HSP990 treatment was begun 72 hours prior to implantation of MC38 cells to allow the drug to reach steady state level prior to tumor challenge.
Serum NVP-HSP990 levels were analyzed by sacrificing mice, performing a cardiac puncture, and isolating approximately 500 μL of whole blood. Blood was transferred to EDTA-coated microtubes and placed on ice. After all samples were collected, they were spun at 10,000×g for 15 min. The supernatant plasma was collected and stored at −80° C. until further processing. 2×10 μL aliquots of serum from each animal was extracted with 40 μL of ice cold acetonitrile and shaken for 30 min at 4° C. The acetonitrile solvent was spiked with 10 nM imatinib as an internal standard for mass spectrometry. Following extraction, samples were spun at 20,000×g for 15 min and the de-proteinated supernatant transferred to a clean Eppendorf tube prior to mass spectrometry analysis. […]

[2] = tested on: Ctrl and B2m KO MC38 cells; assay: Viability of Ctrl and B2m KO MC38 cells in culture, dye reduction assay; assay type: cell-based, mouse; conditions: 2-day exposure to increasing concentrations
Source text: FIGS. 6A-B are graphs showing anti-tumor activity of low-dose HSP90i is dependent on functional MHC Class I expression. Ctrl or B2m KO cells were generated by CRISPR-Cas9 mediated gene editing, and B2m KO cells were confirmed to no longer express MHC-I on the cell surface. FIG. 6A is a line graph showing relative number of viable Ctrl and B2m KO cells measured by standard dye reduction assay following 2-day exposure to increasing concentrations of HSP90i; FIG. 6B is a line graph showing size in mm^3 of Ctrl or B2m KO MC38 tumors in mice treated with vehicle (Veh, solid lines) or 0.5 mg/kg/day HSP90i (dotted lines) over 25 days post implantation.
For CRISPR/Cas9-mediated disruption of B2m, pSpCas9-P2A-GFP plasmid (Addgene #48138) was modified with a control sgRNA sequence ([…]) or an sgRNA targeting B2m ([…]). Log phase MC38 cells were transfected with Ctrl or B2m plasmids using Lipofectamine 2000 (Invitrogen) according to manufacturer's instructions. 24 hours later, single GFP positive cells were sorted into 96-well plates to isolate individual MC38 clones with the desired modification. After 2 weeks, isolated clones were tested by western blot to confirm loss of B2m expression. Ctrl and B2m clones were then passaged through syngeneic mice (C57/B16) to increase the uniformity of tumor establishment and progression in subsequent experiments.

[3] = tested on: MC38 cells; assay: qRT-PCR of MHC Class I and immunoproteasome genes in MC38 cells; assay type: cell-based, mouse; conditions: 60 nM, 72 hours
Protocol: FIGS. 5A-5L are graphs showing low dose administration of HSP90i diversifies the antigen repertoire of tumor cells. FIG. 5A is a bar graph showing relative mRNA expression MHC Class I and immunoproteasome gene expression in MC38 cells treated for 72 hours with HSP90i (60 nM) based on qRT-PCR analysis. All treated samples were normalized to DMSO (Veh)=1 (n=3); FIG. 5B is a schematic depiction of the effect of HSP90i treatment on proteasome composition and ONX-0914 mode of action; FIG. 5C is a bar graph showing cell surface expression of MHC Class I on MC38 cells treated with vehicle or HSP90i in combination with DMSO or ONX-0914 (500 nM). Normalized values calculated based on the median fluorescence intensity of the baseline sample for DMSO- or ONX-0914-treated samples (n=3); FIG. 5D is a schematic overview of protocol for MHC Class I peptide profiling; motif analysis for amino acid enrichment of 8-mer (FIG. 5E) and 9-mer peptides (FIG. 5F) identified by mass spectrometry; FIG. 5G is a histogram depicting the size distribution of peptides identified by MHC Class I IP and mass spectrometry; FIG. 5H is a Venn diagram of the number of unique peptides identified in vehicle- and Hsp90i-treated samples. […]

[4] = Mouse weights and body condition, KP and KPM mice; assay type: in vivo; conditions: four weeks of low dose treatment
Protocol: FIG. 11A is a box plot showing tumor burden analysis in KP and KPM mice treated with vehicle (control) or Hsp90i. FIG. 11B is a graph showing the longitudinal analysis of mouse weights with vehicle or Hsp90i in the drinking water. The mice were treated for up to 4 weeks with vehicle control or a low dose of HSP90i. In FIG. 11B, KP and KPM mice were combined for vehicle and control treatment groups.
KP and KPM mice were infected intratracheally with Adenovirus expressing Cre recombinase from an SPC promoter at a titer of 2×10^8 plaque forming units per mouse to initiate tumor formation. 8 weeks following tumor initiation, the cohort was randomized and vehicle (control) or Hsp90i (NVP-HSP990) was administered in the drinking water at a dose of 0.5 mg/kg/day for 4 weeks prior to analysis at 12 weeks post tumor induction.

## COc1cccc(-c2cc(F)ccc2[C@H]2Cc3nc(N)nc(C)c3C(=O)N2)n1 [NVP-HSP990]
[1]
  plasma concentration of HSP90i: ~20 nM
[2]
  sensitivity of Ctrl versus B2m KO MC38 cells in culture: no difference in sensitivity
[3]
  expression of immunoproteasome genes Psme1, Psme2, Psmb8, Psmb9, Psmb10: robustly induced
  transcript levels of MHC Class I heavy chains H2-K1 and H2-D1 or light chain B2m: did not alter transcript levels
[4]
  mouse mass or body condition: minimal effects on mouse mass or body condition

Source: US20190365719A1, “COMBINATION TREATMENTS OF HSP90 INHIBITORS FOR ENHANCING TUMOR IMMUNOGENICITY AND METHODS OF USE THEREOF” (Massachusetts Institute of Technology, priority 2018, published 2019)
